From patent US20230095689A1, “METHOD OF CULTURING RECONSTRUCTED HUMAN SKIN” (Korea University Research and Business Foundation, priority 2021, published 2023) come the findings set out here.

This series has as its system reconstructed human skin produced according to Example 1. Kind of series: Evaluation of skin barrier function of reconstructed human skin with liquid surfactant (MTT, OECD Test Guideline 439). In kind it is cell-based. How it is done:
In order to confirm the skin barrier function of the reconstructed human skin produced according to the present invention, the skin barrier function was evaluated using the reconstructed human skin produced in the culture vessel having the inner wall coated with dopamine in Example 1. The skin barrier function was evaluated in a manner in which cell viability relative to an untreated control depending on the treatment time with 1% Triton X-100 was measured, and ET50 (Effective Time 50%), which is the time taken to reach the cell viability of 50%, was determined, according to the barrier evaluation method presented as a performance standard in OECD Test Guideline 439. […] The formazan dye thus formed was dissolved in 2 ml of 2-propanol, 200 μl thereof was placed in each of two wells of a 96-well plate, and optical density at a wavelength of 570 nm was measured using a plate reader, and each optical density of treated group was compared to those in untreated control, thereby calculating relative cell viability, and ET50 (Effective Time 50), which is the time taken to reach the cell viability of 50%, was determined.

Regarding Triton X-100, the relative cell viability result (1% Triton X-100 for 2, 5, 8 and 20 hours, MTT relative to untreated control) is given as “decreased depending on the treatment time”. Further, where the note is “200 μl of 1% Triton X-100 solution on upper surface, MTT, optical density at 570 nm relative to untreated control”, the “ET50 (Effective Time 50), time taken to reach the cell viability of 50%” value is “about 4.5 hours”.
